Source: patent US9518064B2, “Imidazothiadiazole and imidazopyridazine derivatives as protease activated receptor 4 (PAR4) inhibitors for treating platelet aggregation” (BRISTOL-MYERS SQUIBB COMPANY, priority 2012, dated 2016)
pIC50: −log10 of the molar value.

Molecular target: PAR4 (Homo sapiens (Human), UniProt Q96RI0)
Experiment: FLIPR assay in PAR4-expressing HEK293 cells (calcium mobilization)
Assay type: cell-based
Conditions: PAR4 antagonist activity, FLIPR assay as described in Example A

Sequence of PAR4 (Q96RI0 18-385): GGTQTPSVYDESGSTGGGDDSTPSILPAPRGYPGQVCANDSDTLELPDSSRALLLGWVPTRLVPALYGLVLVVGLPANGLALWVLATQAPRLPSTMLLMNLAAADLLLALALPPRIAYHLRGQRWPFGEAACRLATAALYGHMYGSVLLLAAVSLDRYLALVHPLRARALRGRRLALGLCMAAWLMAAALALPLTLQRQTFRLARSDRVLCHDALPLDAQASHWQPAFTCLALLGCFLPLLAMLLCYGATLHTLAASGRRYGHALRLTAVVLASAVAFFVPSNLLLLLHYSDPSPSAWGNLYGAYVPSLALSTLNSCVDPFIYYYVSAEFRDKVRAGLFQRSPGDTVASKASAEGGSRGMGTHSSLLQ

SMILES	pIC50
COc1cc(OCc2cccc(-c3ncccn3)c2)c2cc(-c3cn4nc(OC)sc4n3)oc2c1 [Example 3, 2-Methoxy-6-(6-methoxy-4-((3-(pyrimidin-2-yl)benzyl)oxy)benzofuran-2-yl)imidazo[2,1-b][1,3,4]thiadiazole]	8.51
COc1cc(OCc2cccc(-c3cc4ccccc4s3)c2)c2cc(-c3cn4nc(OC)sc4n3)oc2c1 [Example 4]	8.03
COc1cc(OCc2cccc(-c3c(C)noc3C)c2)c2cc(-c3cn4nc(OC)sc4n3)oc2c1 [Example 5]	8.63
COc1cc(OCc2cccc(-c3ccc(F)nc3)c2)c2cc(-c3cn4nc(OC)sc4n3)oc2c1 [Example 7]	8.89
COc1ccc(-c2cccc(COc3cc(OC)cc4oc(-c5cn6nc(OC)sc6n5)cc34)c2)c(C)c1 [Example 8]	8.77
COc1cc(OCc2cccc(-c3ccsc3)c2)c2cc(-c3cn4nc(OC)sc4n3)oc2c1 [Example 9]	8.90
COc1cc(OCc2cccc(-c3cnn(C)c3)c2)c2cc(-c3cn4nc(OC)sc4n3)oc2c1 [Example 10]	8.45
COc1cc(OCc2cccc(-c3csc(C)n3)c2)c2cc(-c3cn4nc(OC)sc4n3)oc2c1 [Example 11]	8.44
COc1cc(OCc2cccc(-c3csc4ccccc34)c2)c2cc(-c3cn4nc(OC)sc4n3)oc2c1 [Example 12]	8.42
COc1cc(OCc2cccc(-c3ccc(F)cn3)c2)c2cc(-c3cn4nc(OC)sc4n3)oc2c1 [Example 14]	8.82
COc1cc(OCc2cccc(-c3cccnc3)c2)c2cc(-c3cn4nc(OC)sc4n3)oc2c1 [Example 15]	8.19
COc1cc(OCc2cccc(-c3ccc(F)cc3F)c2)c2cc(-c3cn4nc(OC)sc4n3)oc2c1 [Example 17]	8.42
COc1cc(OCc2cccc(-c3cnc(OC)nc3OC)c2)c2cc(-c3cn4nc(OC)sc4n3)oc2c1 [Example 19]	8.62
COc1cc(OCc2cccc(-c3ccc4nsnc4c3)c2)c2cc(-c3cn4nc(OC)sc4n3)oc2c1 [Example 20]	8.07
COc1cc(OCc2cccc(-c3cnc4ccccn34)c2)c2cc(-c3cn4nc(OC)sc4n3)oc2c1 [Example 21]	8.13
COc1cc(OCc2cccc(-c3ccc4nncn4c3)c2)c2cc(-c3cn4nc(OC)sc4n3)oc2c1 [Example 22]	7.63
COc1cc(OCc2cccc(-c3ccc(C)cn3)c2)c2cc(-c3cn4nc(OC)sc4n3)oc2c1 [Example 25]	8.69
COc1cc(OCc2cccc(-c3ccnc(C)c3)c2)c2cc(-c3cn4nc(OC)sc4n3)oc2c1 [Example 27]	8.37
COc1cc(OCc2cccc(-c3ncc(F)cc3F)c2)c2cc(-c3cn4nc(OC)sc4n3)oc2c1 [Example 33]	9.17
COc1cc(OCc2cccc(-c3ccc(Cl)cn3)c2)c2cc(-c3cn4nc(OC)sc4n3)oc2c1 [Example 36]	9.42

SMILES	pIC50
CCCOc1ncc(-c2cccc(COc3cc(OC)cc4oc(-c5cn6nc(OC)sc6n5)cc34)c2)cn1 [Example 37]	9.44
COc1cc(OCc2cccc(-c3cnc(F)c(C)c3)c2)c2cc(-c3cn4nc(OC)sc4n3)oc2c1 [Example 38]	9.17
COc1cc(OCc2cccc(-c3ccc(C)nc3F)c2)c2cc(-c3cn4nc(OC)sc4n3)oc2c1 [Example 39]	9.28
COc1cc(OCc2cccc(-c3coc(C(N)=O)c3)c2)c2cc(-c3cn4nc(OC)sc4n3)oc2c1 [Example 41]	8.06
COc1cc(OCc2cccc(-c3cnc(C#N)cn3)c2)c2cc(-c3cn4nc(OC)sc4n3)oc2c1 [Example 42]	8.98
COc1cc(OCc2cccc(-c3ncccc3F)c2)c2cc(-c3cn4nc(OC)sc4n3)oc2c1 [Example 44]	8.92
COc1cc(OCc2cccc(-c3cccnc3F)c2)c2cc(-c3cn4nc(OC)sc4n3)oc2c1 [Example 45]	8.99
COc1cc(OCc2cccc(-c3ncccc3C#N)c2)c2cc(-c3cn4nc(OC)sc4n3)oc2c1 [Example 46]	8.79
COc1cc(OCc2cccc(-c3ncc(Cl)cc3F)c2)c2cc(-c3cn4nc(OC)sc4n3)oc2c1 [Example 50]	8.73
COc1cc(OCc2cccc(-c3cnc(OC)cc3C)c2)c2cc(-c3cn4nc(OC)sc4n3)oc2c1 [Example 51]	8.92
COc1cc(OCc2cccc(-c3ncc(Cl)cc3C)c2)c2cc(-c3cn4nc(OC)sc4n3)oc2c1 [Example 52]	9.25
COc1cc(OCc2cccc(-c3ncc(Cl)cc3Cl)c2)c2cc(-c3cn4nc(OC)sc4n3)oc2c1 [Example 54]	8.83
COc1cc(OCc2cccc(-c3ccnc(F)c3)c2)c2cc(-c3cn4nc(OC)sc4n3)oc2c1 [Example 55]	9.16
COc1cc(OCc2cccc(-c3ccc(Cl)nc3)c2)c2cc(-c3cn4nc(OC)sc4n3)oc2c1 [Example 56]	9.13
COc1cc(OCc2cccc(-c3ccc(C(=O)N4CCOCC4)nc3)c2)c2cc(-c3cn4nc(OC)sc4n3)oc2c1 [Example 57]	8.78
COCOc1cnc(-c2cccc(COc3cc(OC)cc4oc(-c5cn6nc(OC)sc6n5)cc34)c2)cn1 [Example 58]	8.91
COc1ccc(COC(C)c2ccc(-c3cccc(COc4cc(OC)cc5oc(-c6cn7nc(OC)sc7n6)cc45)c3)nc2)cc1 (stereo not drawn) [Example 61]	9.00
COc1ccc(-c2cc(F)cc(COc3cc(OC)cc4oc(-c5cn6nc(OC)sc6n5)cc34)c2)nc1 [Example 62, 6-(4-((3-Fluoro-5-(5-methoxypyridin-2-yl)benzyl)oxy)-6-methoxybenzofuran-2-yl)-2-methoxyimidazo[2,1-b][1,3,4]thiadiazole]	9.08
COc1cc(OCc2cncc(-c3ccoc3)c2)c2cc(-c3cn4nc(OC)sc4n3)oc2c1 [Example 65, 6-(4-((5-(Furan-3-yl)pyridin-3-yl)methoxy)-6-methoxybenzofuran-2-yl)-2-methoxyimidazo[2,1-b][1,3,4]thiadiazole]	8.97
COc1cc(COc2cc(OC)cc3oc(-c4cn5nc(OC)sc5n4)cc23)cc(-c2ccc(Cl)nc2)c1 [Example 66, 6-(4-((3-(6-Chloropyridin-3-yl)-5-methoxybenzyl)oxy)-6-methoxybenzofuran-2-yl)-2-methoxyimidazo[2,1b][1,3,4]thiadiazole]	9.24

SMILES	pIC50
COc1cc(OCc2cccc(-c3ccc(F)cn3)c2)c2cc(-c3cn4nc(C(C)(F)F)sc4n3)oc2c1 [Example 67]	8.34
COc1cc(OCc2cc(F)cc(-c3ncc(F)cc3F)c2)c2cc(-c3cn4nc(OC)sc4n3)oc2c1 [Example 70]	8.83
COc1cc(OCc2cncc(-c3ccccc3)c2)c2cc(-c3cn4nc(OC)sc4n3)oc2c1 [Example 72]	8.14
COc1ccc(-c2cncc(COc3cc(OC)cc4oc(-c5cn6nc(OC)sc6n5)cc34)c2)cc1 [Example 73]	8.66
COc1cc(OCc2cncc(-c3ccc(Cl)nc3)c2)c2cc(-c3cn4nc(OC)sc4n3)oc2c1 [Example 74]	8.80
COc1cc(OCc2cncc(-c3cnc(OC)nc3)c2)c2cc(-c3cn4nc(OC)sc4n3)oc2c1 [Example 75]	8.67
COc1cc(OCc2cccc(-c3ccc(Cl)nc3)n2)c2cc(-c3cn4nc(OC)sc4n3)oc2c1 [Example 76]	8.18
COc1cc(OCc2cccc(-c3cnc(OC)nc3)n2)c2cc(-c3cn4nc(OC)sc4n3)oc2c1 [Example 77]	8.66
COc1ccc(-c2cccc(COc3cc(OC)cc4oc(-c5cn6nc(OC)sc6n5)cc34)n2)cc1 [Example 78]	9.02
CSc1nn2cc(-c3nc4c(OCc5ccccc5-c5ccccc5)cccc4o3)nc2s1 [Example 80]	5.50
COc1cc(OCc2cccc(-c3cnc(OC)nc3)c2)c2cc(-c3cn4nc(C)ccc4n3)oc2c1 [Example 82, 2-(6-Methoxy-4-((3-(2-methoxypyrimidin-5-yl)benzyl)oxy)benzofuran-2-yl)-6-methylimidazo[1,2-b]pyridazine]	8.88
COc1cc(OCc2cc(F)cc(-c3cnc(OC)nc3)c2)c2cc(-c3cn4nc(OC)sc4n3)oc2c1 [Example 83, 6-(4-((3-Fluoro-5-(2-methoxypyrimidin-5-yl)benzyl)oxy)-6-methoxybenzofuran-2-yl)-2-methoxyimidazo[2,1-b][1,3,4]thiadiazole]	9.41
COc1cc(OCc2cccc(-c3ccc(C(=O)O)nc3)c2)c2cc(-c3cn4nc(OC)sc4n3)oc2c1 [Example 84, 5-(3-(((6-Methoxy-2-(2-methoxyimidazo[2,1-b][1,3,4]thiadiazol-6-yl)benzofuran-4-yl)oxy)methyl)phenyl)picolinic acid]	7.19
COCCN(C)C(=O)c1ccc(-c2cccc(COc3cc(OC)cc4oc(-c5cn6nc(OC)sc6n5)cc34)c2)cn1 [Example 85, 5-(3-(((6-Methoxy-2-(2-methoxyimidazo[2,1-b][1,3,4]thiadiazol-6-yl)benzofuran-4-yl)oxy)methyl)phenyl)-N-(2-methoxyethyl)-N-methylpicolinamide]	8.83
COc1cc(OCc2cccc(-c3ccc(C(C)OC4CCCCO4)cn3)c2)c2cc(-c3cn4nc(OC)sc4n3)oc2c1 (stereo not drawn) [Example 86, 2-Methoxy-6-(6-methoxy-4-((3-(5-(1-((tetrahydro-2H-pyran-2-yl)oxy)ethyl)pyridin-2-yl)benzyl)oxy)benzofuran-2-yl)imidazo[2,1-b][1,3,4]thiadiazole]	9.25
COc1cc(OCc2cccc(-c3ccc(C(C)O)cn3)c2)c2cc(-c3cn4nc(OC)sc4n3)oc2c1 (stereo not drawn) [Example 87, 1-(6-(3-(((6-Methoxy-2-(2-methoxyimidazo[2,1-b][1,3,4]thiadiazol-6-yl)benzofuran-4-yl)oxy)methyl)phenyl)pyridin-3-yl)ethanol]	8.95
COc1cc(OCc2cccc(-c3ccc(OC4CCCCO4)cc3)c2)c2cc(-c3cn4nc(OC)sc4n3)oc2c1 (stereo not drawn) [Example 88]	8.96
COc1cc(OCc2cccc(-c3ccc(OC4CCCCO4)cn3)c2)c2cc(-c3cn4nc(OC)sc4n3)oc2c1 (stereo not drawn) [Example 89]	9.10
COc1cc(OCc2cccc(-c3ccc(O)cc3)c2)c2cc(-c3cn4nc(OC)sc4n3)oc2c1 [Example 90]	8.31
COc1cc(OCc2cccc(-c3ccc(O)cn3)c2)c2cc(-c3cn4nc(OC)sc4n3)oc2c1 [Example 91]	8.04
